Measured values as given in patent US6737383B1, “Herbicidal oxadiazolidines” (priority 1999, dated 2004).

Assays:
[1] = test system: kochia; test: Test E kochia; format: in vivo, Kochia scoparia; details: Preemergence
[2] = test system: downy brome; test: Test E downy brome; format: in vivo, Bromus tectorum; details: Preemergence
[3] = test system: downy brome; test: Test E downy brome; format: in vivo, Bromus tectorum; details: Postemergence; for Plant response rating, Downy brome: 0 to 100 scale
Experimental: (§1) Compounds evaluated in this test were formulated in a non-phytotoxic solvent mixture which included a surfactant and applied to plants that were in the 1- to 4-leaf stage (postemergence application). A mixture of sandy loam soil and greenhouse potting mix in a 60:40 ratio was used for the postemergence test.
(§2) Plantings of these crops and weed species were adjusted to produce plants of appropriate size for the postemergence test. All plant species were grown using normal greenhouse practices. Crop and weed species include annual bluegrass (Poa annua), blackgrass (Alopecurus myosuroides), black nightshade (Solanum nigra), chickweed (Stellaria media), common poppy (Papaver rhoeas), deadnettle (Lamium amplexicaule), downy brome (Bromus tectorum), field violet (Viola arvensis), galium (Galium aparine), green foxtail (Setaria viridis), Italian ryegrass (Lolium multiflorum), jointed goatgrass (Aegilops cylindrica), kochia (Kochia scoparia), lambsquarters (Chenopodium album), littleseed canarygrass (Phalaris minor), rape (Brassica napus), redroot pigweed (Amaranthus retroflexus), Russian thistle (Salsola kali), scentless chamomile (Matricaria inodora), spring barley (Hordeum vulgare), sugar beet (Beta vulgaris), sunflower (Helianthus annuus), ivyleaf speedwell (Veronica hederaefolia), spring wheat (Triticum aestivum), winter wheat (Triticum aestivum), wild buckwheat (Polygonum convolvulus), wild mustard (Sinapis arvensis), wild oat (Avena fatua), windgrass (Apera spica-venti) and winter barley (Hordeum vulgare).
(§3) Treated plants and untreated controls were maintained in a greenhouse for approximately 21 to 28 days, after which all treated plants were compared to untreated controls and visually evaluated. […] A dash response (-) means no test result.

[4] = test system: spring wheat; test: Test E spring wheat; format: in vivo, Triticum aestivum; details: Postemergence
Experimental: as §1, §2, §3

[5] = test system: littleseed canarygrass; test: Test E littleseed canarygrass; format: in vivo, Phalaris minor; details: Postemergence
In short: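 Visually scored herbicidal effect relative to untreated plants, taken ~21 to 28 days post-application; compound in solvent with surfactant; postemergence sprays at the 1- to 4-leaf stage.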

[6] = test system: jointed goatgrass; test: Test E jointed goatgrass; format: in vivo, Aegilops cylindrica; details: Preemergence
[7] = test system: field violet; test: Test E field violet; format: in vivo, Viola arvensis; details: Preemergence
[8] = test system: Russian thistle; test: Test E Russian thistle; format: in vivo, Salsola kali; details: Preemergence
[9] = test system: Italian ryegrass; test: Test E Italian ryegrass; format: in vivo, Lolium multiflorum; details: Postemergence
Experimental: as §1, §2, §3

[10] = test system: field violet; test: Test E field violet; format: in vivo, Viola arvensis; details: Postemergence
Experimental: as §1, §2, §3

[11] = test system: spring barley; test: Test E spring barley; format: in vivo, Hordeum vulgare; details: Preemergence
[12] = test system: sunflower; test: Test E sunflower; format: in vivo, Helianthus annuus; details: Postemergence
Experimental: as §2, with “Plantings of these crops and weed species were adjusted to produce plants of appropriate size for the postemergence test.” left out
as §3

[13] = test system: common poppy; test: Test E common poppy; format: in vivo, Papaver rhoeas; details: Postemergence
Experimental: as §1, §2, §3

[14] = test system: ivyleaf speedwell; test: Test E postemergence ivyleaf speedwell; format: in vivo, Veronica hederaefolia
Experimental: as §1, §2, §3

[15] = test system: wild mustard; test: Test E wild mustard; format: in vivo, Sinapis arvensis; details: Postemergence
Experimental: […] A mixture of sandy loam soil and greenhouse potting mix in a 60:40 ratio was used for the postemergence test.
as §2, §3

[16] = test system: sugar beet; test: Test E sugar beet; format: in vivo, Beta vulgaris; details: Postemergence
Experimental: as §1, §2, §3

[17] = test system: wild oat; test: Test E wild oat; format: in vivo, Avena fatua; details: Postemergence
Experimental: as §1, §2, §3

[18] = test system: jointed goatgrass; test: Test E jointed goatgrass; format: in vivo, Aegilops cylindrica; details: Postemergence
Experimental: as §1, §2, §3

[19] = test system: littleseed canarygrass; test: Test E littleseed canarygrass; format: in vivo, Phalaris minor; details: Preemergence
[20] = test system: windgrass; test: Test E windgrass; format: in vivo, Apera spica-venti; details: Preemergence
[21] = test system: redroot pigweed; test: Test E redroot pigweed; format: in vivo, Amaranthus retroflexus; details: Postemergence
Experimental: as §1, §2, §3

[22] = test system: scentless chamomile; test: Test E scentless chamomile; format: in vivo, Matricaria inodora; details: Postemergence
Experimental: as §1, §2, §3

[23] = Rate 62 g/ha, 0 to 100 scale, 0 no effect, 100 complete control
[24] = Rate 125 g/ha, 0 to 100 scale (0 no effect, 100 complete control)
[25] = Rate 250 g/ha, 0 to 100 scale (0 no effect, 100 complete control)

Structure (SMILES): C=CCn1c(=O)on(C(=O)N(c2ccccc2)C(C)C)c1=O [Compound 93]
- Plant response rating, Kochia [1, 23]: 0
- Plant response rating, Kochia [1, 24]: 0
- Plant response rating, Kochia ([1]; Rate 250 g/ha, 0 to 100 scale): 20
- Plant response rating, Downy brome [2, 23]: 40
- Plant response rating, Downy brome [2, 24]: 60
- Plant response rating, Downy brome ([2]; Rate 250 g/ha, 0 to 100 scale): 20
- Plant response rating, Downy brome ([3]; Rate 62 g/ha): 0
- Plant response rating, Downy brome ([3]; Rate 125 g/ha): 0
- Plant response rating, Downy brortie [3, 25]: 0
- Plant response rating, Spring Wheat ([4]; Rate 62 g/ha, 0 to 100 scale): 0
- Plant response rating, Spring Wheat ([4]; Rate 125 g/ha, 0 to 100 scale): 0
- Plant response rating, Spring Wheat [4, 25]: 0
- Plant response rating, LS canarygrass ([5]; Rate 62 g/ha, 0 to 100 scale): 0
- Plant response rating, LS canarygrass ([5]; Rate 125 g/ha, 0 to 100 scale): 0
- Plant response rating, LS canarygrass [5, 25]: 0
- Plant response rating, Jointed goatgra [6, 23]: 15
- Plant response rating, Jointed goatgra [6, 24]: 70
- Plant response rating, Jointed goatgra ([6]; Rate 250 g/ha, 0 to 100 scale): 60
- Plant response rating, Field violet [7, 23]: 0
- Plant response rating, Field violet [7, 24]: 10
- Plant response rating, Field violet ([7]; Rate 250 g/ha, 0 to 100 scale): 30
- Plant response rating, Russian thistle [8, 23]: 0
- Plant response rating, Russian thistle [8, 24]: 0
- Plant response rating, Russian thistle ([8]; Rate 250 g/ha, 0 to 100 scale): 0
- Plant response rating, I. Ryegrass ([9]; Rate 62 g/ha, 0 to 100 scale): 0
- Plant response rating, I. Ryegrass ([9]; Rate 125 g/ha, 0 to 100 scale): 0
- Plant response rating, I. Ryegrass [9, 25]: 0
- Plant response rating, Field violet ([10]; Rate 62 g/ha, 0 to 100 scale): 0
- Plant response rating, Field violet ([10]; Rate 125 g/ha, 0 to 100 scale): 0
- Plant response rating, Field violet [10, 25]: 0
- Plant response rating, Spring Barley [11, 23]: 5
- Plant response rating, Spring Barley [11, 24]: 10
- Plant response rating, Spring Barley ([11]; Rate 250 g/ha, 0 to 100 scale): 60
- Plant response rating, Sunflower ([12]; Rate 62 g/ha, 0 to 100 scale): 0
- Plant response rating, Sunflower ([12]; Rate 125 g/ha, 0 to 100 scale): 0
- Plant response rating, Sunflower [12, 25]: 0
- Plant response rating, Common poppy ([13]; Rate 62 g/ha, 0 to 100 scale): 0
- Plant response rating, Comnion poppy ([13]; Rate 125 g/ha, 0 to 100 scale): 0
- Plant response rating, Common poppy [13, 25]: 0
- Plant response rating, Veronica hedera ([14]; Rate 62 g/ha, 0 to 100 scale): 0
- Plant response rating, Veronica hedera ([14]; Rate 125 g/ha, 0 to 100 scale): 0
- Plant response rating, Veronica hedera [14, 25]: 0
- Plant response rating, Wild mustard ([15]; Rate 62 g/ha, 0 to 100 scale): 0
- Plant response rating, Wild mustard ([15]; Rate 125 g/ha, 0 to 100 scale): 0
- Plant response rating, Wild mustard [15, 25]: 10
- Plant response rating, Sugar beet ([16]; Rate 62 g/ha, 0 to 100 scale): 0
- Plant response rating, Sugar beet ([16]; Rate 125 g/ha, 0 to 100 scale): 0
- Plant response rating, Sugar beet [16, 25]: 0
- Plant response rating, Wild oat ([17]; Rate 62 g/ha, 0 to 100 scale): 0
- Plant response rating, Wild oat ([17]; Rate 125 g/ha, 0 to 100 scale): 0
- Plant response rating, Wild oat [17, 25]: 0
- Plant response rating, Jointed goatgra ([18]; Rate 62 g/ha, 0 to 100 scale): 0
- Plant response rating, Jointed goatgra ([18]; Rate 125 g/ha, 0 to 100 scale): 0
- Plant response rating, Jointed goatgra [18, 25]: 0
- Plant response rating, LS canarygrass [19, 23]: 40
- Plant response rating, LS canarygrass [19, 24]: 80
- Plant response rating, LS canarygrass ([19]; Rate 250 g/ha, 0 to 100 scale): 60
- Plant response rating, Windgrass [20, 23]: 100
- Plant response rating, Windgrass [20, 24]: 100
- Plant response rating, Redroot pigweed ([21]; Rate 62 g/ha, 0 to 100 scale): 0
- Plant response rating, Redroot pigweed ([21]; Rate 125 g/ha, 0 to 100 scale): 0
- Plant response rating, Redroot pigweed [21, 25]: 0
- Plant response rating, Scentless chamo ([22]; Rate 62 g/ha, 0 to 100 scale): 0
- Plant response rating, Scentless chamo ([22]; Rate 125 g/ha, 0 to 100 scale): 0
- Plant response rating, Scentless chamo [22, 25]: 0
